Biological target: T1, renal dipeptidase (E.C.3.4.13.11) (Sus scrofa, UniProt P22412)
T1 construct: solubilized preparation of dipeptidase isolated from hog kidneys; from tissue; host or cells: hog kidney
T1 sequence (P22412 17-409): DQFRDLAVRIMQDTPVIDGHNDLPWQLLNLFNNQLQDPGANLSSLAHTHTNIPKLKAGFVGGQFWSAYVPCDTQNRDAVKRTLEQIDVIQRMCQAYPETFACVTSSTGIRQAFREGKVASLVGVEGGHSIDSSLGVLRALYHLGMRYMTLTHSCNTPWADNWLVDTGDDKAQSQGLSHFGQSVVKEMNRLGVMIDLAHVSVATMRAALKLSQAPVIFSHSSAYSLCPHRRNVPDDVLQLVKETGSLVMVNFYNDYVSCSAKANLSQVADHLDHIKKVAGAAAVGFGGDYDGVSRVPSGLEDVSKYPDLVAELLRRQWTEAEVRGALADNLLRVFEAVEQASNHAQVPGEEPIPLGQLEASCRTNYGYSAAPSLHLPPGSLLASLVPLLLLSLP
Test: Inhibition of glycyldehydrophenylalanine (GDP) hydrolysis by renal dipeptidase in vitro
Assay type: biochemical, pig (hog)
Settings: 10^-4 M inhibitor; 0.05 mM GDP; pH 7.1; 37° C.
Experimental: This measured the ability of compounds to inhibit hydrolysis of glycyldehydrophenylalanine (GDP) by a solubilized preparation of dipeptidase isolated from hog kidneys The procedure is as follows to a 1 ml. system containing 50 mM "MOPS" (3-(N-morpholino)propanesulfonic acid) buffer, pH 7.1, is added 5 μg of lyophilized enzyme, and the test compound at a final concentration of 0.1 mM. After a five minute incubation at 37° C., GDP is added to a final concentration of 0.05 mM. Incubation is continued for 10 minutes, at 37° C. and hydrolysis of GDP is measured by the change in optical density with time at 275 nm. Inhibition of the enzyme is gauged by comparison to a standard run containing no inhibitor and is expressed as the inhibitor binding constant, Ki.
A 1 ml. system of 50 mM "MOPS" buffer, pH 7.1, is used. To this is added 5 μg of the pig renal enzyme and an amount of the test compound to bring its final concentration to 0.1 mM. After a five minute incubation at 37° C., an amount of GDP is added to bring its final concentration to 0.05 mM. The system is again incubated for 10 minutes, at 37° C. Hydrolysis of GDP is measured by its change in optical density with time at 275 nm. Inhibition of the enzyme is gauged by comparison to a standard run containing no inhibitor and is presented as percent inhibition.

Row | inhibition at 100 µM [%] | SMILES
1 | 98 | CC(C)/C=C(\NC(=O)C1CC1(C)C)C(=O)O (centres unmarked) [Compound 41]

Same assay, conditions: Example 18B, unit inferred; read-out: Ki

Row | Ki [nM] | SMILES
2 | 160 | CC(NCCCCC/C=C(\NC(=O)C1CC1(C)C)C(=O)O)P(=O)(O)O (centres unmarked) [Example 18B]

Same assay, conditions: concentration producing 50% inhibition; substrate GDP 0.05 mM; pH 7.1; 37° C.; read-out: Ki

Row | Ki [nM] | SMILES
3 | 620 | CC1(C)CC1C(=O)N/C(=C\c1ccccc1)C(=O)O (centres unmarked) [Compound 46]
4 | 180 | C[N+](C)(C)CCCCC/C=C(\NC(=O)C1CC1(Cl)Cl)C(=O)[O-] (centres unmarked) [Compound 13]
5 | 150 | CC(C)CC/C=C(\NC(=O)C1CC1(C)C)C(=O)O (centres unmarked) [Compound 63]
6 | 4600 | C/C=C(\NC(=O)C1C(C)C1C)C(=O)O (centres unmarked) [Compound 6]
7 | 330 | CC1(C)CC1C(=O)N/C(=C\CCc1ccccc1)C(=O)O (centres unmarked) [Compound 53]
8 | 230 | CC(C)C/C=C(\NC(=O)C1CC1(C)C)C(=O)O (centres unmarked) [Compound 48]
9 | 110 | CCC/C=C(\NC(=O)C1CC1(C)C)C(=O)O (centres unmarked) [Compound 47]
10 | 340 | CC(C)(C)C/C=C(\NC(=O)C1CC1(C)C)C(=O)O (centres unmarked) [Compound 62]
11 | 6600 | C/C=C(\NC(=O)CC1CCC1)C(=O)O [Compound 9]
12 | 30000 | C/C=C(\NC(=O)CCCC1CCCCC1)C(=O)O [Compound 21]
13 | 720 | CC(=N)NCCCCC/C=C(\NC(=O)C1CC1(C)C)C(=O)O (centres unmarked) [Compound 15]
14 | 9000 | C/C=C(\NC(=O)CC(C)CCOC)C(=O)O (centres unmarked) [Compound 34]
15 | 120 | CSCC/C=C(\NC(=O)C1CC1(C)C)C(=O)O (centres unmarked) [Compound 54]
16 | 80 | CCCCC/C=C(\NC(=O)[C@H]1CC1(C)C)C(=O)O [Compound 66]
17 | 140 | CCCCCCCCCC/C=C(\NC(=O)C1CC1(C)C)C(=O)O (centres unmarked) [Compound 58]
18 | 860 | C/C=C(\NC(=O)C1CC1(CC)CC)C(=O)O (centres unmarked) [Compound 42]
19 | 280 | COCCC/C=C(\NC(=O)C1CC1(C)C)C(=O)O (centres unmarked) [Compound 60]
20 | 2600 | CCCCC/C=C(\NC(=O)CC(C)C)C(=O)O [Compound 39, Z--isovaleramido-2-octenoic acid]
21 | 540 | CC(C)/C=C(\NC(=O)C1CC1(C)C)C(=O)O (centres unmarked) [Compound 41]

Row | Ki [nM] | SMILES
22 | 1700 | C/C=C(\NC(=O)C1CC1C)C(=O)O (centres unmarked) [Compound 3]
23 | 1110 | CC1(C)CC1C(=O)N/C(=C\CCCCC[N+](C)(C)C)C(=O)[O-] (centres unmarked) [Compound 14]
24 | 11000 | C/C=C(\NC(=O)CCCc1ccccc1)C(=O)O [Compound 37]
25 | 500 | CC1(C)CC1C(=O)N/C(=C\CCS(C)(=O)=O)C(=O)O (centres unmarked) [Compound 55]
26 | 1600 | C/C=C(\NC(=O)C1CC1CC)C(=O)O (centres unmarked) [Compound 43]
27 | 450 | C/C=C(\NC(=O)C1CC1(C)CC)C(=O)O (centres unmarked) [Compound 40]
28 | 26000 | C/C=C(\NC(=O)CCCCCCC)C(=O)O [Compound 19, Z-2-octanamido-2-butenoic acid]
29 | 19000 | C/C=C(\NC(=O)CCCCCBr)C(=O)O [Compound 35]
30 | 3200 | CC/C=C(\NC(=O)CC(C)C)C(=O)O [Compound 4]
31 | 6500 | C/C=C(\NC(=O)C1CC1C(C)(C)C)C(=O)O (centres unmarked) [Compound 38]
32 | 10000 | C/C=C(\NC(=O)CC(C)CC)C(=O)O (centres unmarked) [Compound 11]
33 | 6200 | C/C=C(\NC(=O)C1CCC1)C(=O)O [Compound 8]
34 | 32000 | C/C=C(\NC(=O)CCCC)C(=O)O [Compound 23, Z-2-valeramido-2-butenoic acid]
35 | 150 | CC1(C)CC1C(=O)N/C(=C\CC1CCCCC1)C(=O)O (centres unmarked) [Compound 52]
36 | 320 | COCC/C=C(\NC(=O)C1CC1(C)C)C(=O)O (centres unmarked) [Compound 61]
37 | 30000 | C/C=C(\NC(=O)C1CCCC1)C(=O)O [Compound 24]
38 | 180 | CC/C=C(\NC(=O)C1CC1(C)C)C(=O)O (centres unmarked) [Compound 45]
39 | 5000 | O=C(O)CC/C=C(\NC(=O)C1CC1)C(=O)O [Compound 33]
40 | 170 | CCCCC/C=C(\NC(=O)C1CC1(C)C)C(=O)O (centres unmarked) [Compound 50]

Same assay, conditions: resolved racemic Z-2-(2,2-dimethylcyclopropanecarboxamido)-2-octenoic acid

Row | SMILES | activity of resolved isomers
41 | CCCCC/C=C(\NC(=O)[C@H]1CC1(C)C)C(=O)O [dextrorotatory isomer, Z-2-(2,2-dimethylcyclopropanecarboxamido)-2-octenoic acid] | The activity resides in the dextrorotatory isomer
